This series is described as follows: Normal safety test.

`O[C@@H]1CO[C@H]2[C@@H]1OC[C@@H]2O` [isosorbide]: the Normal safety test entry is listed as “no problem occurred”.

The values are drawn from patent US7964638B2, “Skin cosmetic and wrinkle-reducing agent” (Kao Corporation, priority 2005, dated 2011).
